Measurements published in the supplement of paper PMC13380429.

Assays:
Conditions in all cases: 72 h
Caco-2 [1] = test: cell viability relative to DMSO; higher = less toxic
Calu-3 [2] = test: as above
HepG2 [3] = test: as above
U2OS [4] = test: as above
Vero E6 [5] = test: as above
Caco-2 [6] = test: relative viability EC50 (midpoint between 100% and the lowest measured viability); higher = less toxic
Calu-3 [7] = test: as above
HepG2 [8] = test: as above
U2OS [9] = test: as above
Vero E6 [10] = test: as above
Caco-2 [11] = test: drug sensitivity score (DSS) for viability; higher = more toxic; extreme values may be limits of the assay
Calu-3 [12] = test: as above
HepG2 [13] = test: as above
U2OS [14] = test: as above
Vero E6 [15] = test: as above

Compound	cell viability (Caco-2 [1]; 1 nM)	cell viability (Caco-2 [1]; 10 nM)	cell viability (Caco-2 [1]; 100 nM)	cell viability (Caco-2 [1]; 1000 nM)	cell viability (Caco-2 [1]; 10000 nM)	cell viability (Calu-3 [2]; 1 nM)	cell viability (Calu-3 [2]; 10 nM)	cell viability (Calu-3 [2]; 100 nM)	cell viability (Calu-3 [2]; 1000 nM)	cell viability (Calu-3 [2]; 10000 nM)	cell viability (HepG2 [3]; 1 nM)	cell viability (HepG2 [3]; 10 nM)	cell viability (HepG2 [3]; 100 nM)	cell viability (HepG2 [3]; 1000 nM)	cell viability (HepG2 [3]; 10000 nM)	cell viability (U2OS [4]; 1 nM)	cell viability (U2OS [4]; 10 nM)	cell viability (U2OS [4]; 100 nM)	cell viability (U2OS [4]; 1000 nM)	cell viability (U2OS [4]; 10000 nM)	cell viability (Vero E6 [5]; 1 nM)	cell viability (Vero E6 [5]; 10 nM)	cell viability (Vero E6 [5]; 100 nM)	cell viability (Vero E6 [5]; 1000 nM)	cell viability (Vero E6 [5]; 10000 nM)	relative viability EC50 (Caco-2 [6])	relative viability EC50 (Calu-3 [7])	relative viability EC50 (HepG2 [8])	relative viability EC50 (U2OS [9])	relative viability EC50 (Vero E6 [10])	drug sensitivity score (Caco-2 [11])	drug sensitivity score (Calu-3 [12])	drug sensitivity score (HepG2 [13])	drug sensitivity score (U2OS [14])	drug sensitivity score (Vero E6 [15])
O=C(O)c1c2ccccc2cc2ccccc12 [9-anthracenecarboxylic-acid]	93.1%	95.8%	95%	100%	105%	97.1%	97.9%	99.4%	101%	96%	101%	90.5%	102%	104%	102%	100%	100%	101%	101%	103%	98.4%	97.1%	98%	94.7%	103%	> 10 µM	> 10 µM	> 10 µM	> 10 µM	> 10 µM	0	0	0	0	0
Cc1cc(OCCN2CCOCC2)nn1-c1ccc2ccccc2c1 [API-001]	93.2%	91.8%	96.4%	94.1%	92%	98.5%	83.4%	107%	115%	96.7%	102%	111%	89.9%	102%	103%	98.2%	98.5%	102%	101%	102%	96.3%	96%	91.9%	94.8%	103%	> 10 µM	> 10 µM	> 10 µM	> 10 µM	> 10 µM	0	0	0	0	0
CC(=O)NCCCCCC(=O)O [acexamic-acid]	108%	99.2%	98.3%	108%	103%	98.9%	89.2%	94.9%	114%	102%	93%	105%	99.1%	93.7%	107%	96.8%	104%	96.3%	104%	100%	99.4%	99.1%	101%	99.3%	102%	> 10 µM	> 10 µM	> 10 µM	> 10 µM	> 10 µM	0	0	0	0	0
CC(=O)O[C@]1(C(C)=O)CC[C@H]2[C@@H]3C[C@H](C)C4=CC(=O)C=C[C@]4(C)[C@@]3(F)[C@@H](O)C[C@@]21C [fluorometholone-acetate]	99.9%	109%	99.1%	104%	86.6%	103%	100%	97.8%	106%	98.9%	102%	95.6%	101%	92.7%	89.7%	105%	103%	99.3%	98.5%	96.2%	93.5%	98.3%	93.9%	95.7%	90.4%	> 10 µM	> 10 µM	> 10 µM	> 10 µM	> 10 µM	0.1	0	0	0	0
CC(=O)Nc1ccc(S(=O)(=O)Nc2ccc([N+](=O)[O-])cc2)cc1 [sulfanitran]	99%	96.6%	97.9%	92.9%	99.1%	96.5%	105%	103%	89%	98.9%	104%	94.5%	105%	95%	109%	97.6%	106%	98.7%	105%	102%	101%	94.5%	97%	97.1%	104%	> 10 µM	> 10 µM	> 10 µM	> 10 µM	> 10 µM	0	0	0	0	0
Clc1ccc([C@]23CNC[C@H]2C3)cc1Cl [amitifadine]	99.2%	92%	103%	87.3%	95.8%	106%	90.7%	101%	105%	97.9%	89.5%	104%	98.2%	98.6%	94.9%	100%	97.6%	103%	98.4%	104%	101%	105%	100%	103%	99%	> 10 µM	> 10 µM	> 10 µM	> 10 µM	> 10 µM	0	0	0	0	0
Clc1ccccc1CN1CCc2sccc2C1 [ticlopidine]	91.9%	102%	93.5%	93.4%	99.8%	101%	98.3%	99.6%	91.7%	101%	97.5%	93%	107%	106%	94.9%	98.9%	91.5%	97.2%	102%	108%	89%	97.9%	98%	95.6%	105%	> 10 µM	> 10 µM	> 10 µM	> 10 µM	> 10 µM	0	0	0	0	0
CNc1ncc2cc(-c3cc(NC(=O)NCCC(C)(C)C)c(F)cc3C)c(C)nc2n1	101%	97.9%	99.1%	71.1%	35.7%	90.9%	106%	106%	75.5%	24.6%	111%	98.9%	78.2%	12.5%	8.3%	104%	104%	97.9%	82.3%	17.6%	96.6%	103%	95.1%	59.2%	22.3%	1.09 µM	1.34 µM	0.189 µM	1.67 µM	0.915 µM	7.2	7.7	18.9	7.4	9.1
CCOC(=O)c1ccc(O)cc1 [ethyl-paraben]	101%	94.3%	101%	99.2%	100%	96.6%	93%	106%	97.3%	92%	108%	102%	101%	94.7%	97.8%	96.3%	97%	107%	98.3%	106%	102%	99.7%	98.9%	104%	99.8%	> 10 µM	> 10 µM	> 10 µM	> 10 µM	> 10 µM	0	0	0	0	0
Cc1cccc(C#Cc2ccccc2)n1 [MPEP]	98.7%	94.5%	98.1%	102%	95%	91.5%	95.5%	88.2%	89.6%	91.1%	98.8%	94.6%	101%	101%	103%	103%	100%	98.6%	103%	94%	98.1%	94.9%	96.6%	97.1%	95%	> 10 µM	> 10 µM	> 10 µM	> 10 µM	> 10 µM	0	0.1	0	0	0
COc1cc2c(Nc3ccc(NC(=O)c4ccccc4)cc3)ncnc2cc1OCCCN1CCOCC1	99.6%	96.8%	106%	102%	108%	95.2%	95.5%	96.9%	79.4%	99.6%	102%	107%	96.4%	108%	109%	105%	98.3%	101%	103%	102%	99.7%	101%	101%	97.3%	108%	> 10 µM	> 10 µM	> 10 µM	> 10 µM	> 10 µM	0	0	0	0	0
